Measured values published in ChEMBL document CHEMBL1139425, “Characterization of the binding properties of SIRT2 inhibitors with a N-(3-phenylpropenoyl)-glycine tryptamide backbone” (Bioorg Med Chem, 2008).

Target: T1, NAD-dependent protein deacetylase sirtuin-2 (Homo sapiens, UniProt Q8IXJ6)
T1 sequence (Q8IXJ6 whole entry): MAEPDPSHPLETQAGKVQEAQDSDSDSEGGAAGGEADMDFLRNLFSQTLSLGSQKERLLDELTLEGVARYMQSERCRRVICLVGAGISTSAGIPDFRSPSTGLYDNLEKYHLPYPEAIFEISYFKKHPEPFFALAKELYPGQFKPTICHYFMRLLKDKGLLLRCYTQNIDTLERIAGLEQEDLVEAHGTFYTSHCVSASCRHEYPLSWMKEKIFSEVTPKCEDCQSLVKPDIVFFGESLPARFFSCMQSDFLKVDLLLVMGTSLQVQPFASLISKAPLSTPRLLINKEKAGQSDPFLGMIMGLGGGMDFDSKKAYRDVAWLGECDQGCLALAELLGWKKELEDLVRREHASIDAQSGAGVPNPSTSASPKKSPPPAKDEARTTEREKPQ
Test: Inhibition of recombinant GST-tagged SIRT2 by Fluor de Lys fluorescence assay

| IC50 [µM] | SMILES |
| --- | --- |
| 105 | CC(C)(NC(=O)/C=C/c1ccc(F)cc1)C(=O)NCCc1c[nH]c2ccccc12 |
| 173 | O=C(/C=C/c1ccccc1)NCCc1c[nH]c2ccccc12 |
| 86 | C[C@H](NC(=O)CCc1ccccc1)C(=O)NCCc1c[nH]c2ccc(OCc3ccccc3)cc12 |
| 100 | CC(C)(NC(=O)/C=C/c1ccccc1)C(=O)NCCc1c[nH]c2ccccc12 |
| 109 | C[C@H](NC(=O)/C=C/c1ccccc1)C(=O)NCCc1c[nH]c2ccccc12 |

Target: T2, NAD-dependent protein deacetylase sirtuin-2 (Homo sapiens) (UniProt Q8IXJ6)
T2 sequence (whole entry): T1 sequence (Q8IXJ6 whole entry)
Test: Inhibition of recombinant GST-tagged SIRT2 at 200 uM by Fluor de Lys fluorescence assay

| SMILES | inhibition [%] |
| --- | --- |
| CC(C)(NC(=O)/C=C/c1ccc(F)cc1)C(=O)NCCc1c[nH]c2ccccc12 | 61.3 |
| O=C(NCCc1c[nH]c2ccccc12)[C@@H]1CCCN1C(=O)/C=C/c1ccccc1 | 36.6 |
| CC(C)(NC(=O)CCc1ccc(O)cc1)C(=O)NCCc1c[nH]c2ccccc12 | 19.5 |
| CC(C)(NC(=O)/C=C/c1cccc(O)c1)C(=O)NCCc1c[nH]c2ccccc12 | 46.7 |
| CC(C)(NC(=O)/C=C/c1ccc(O)cc1)C(=O)NCCc1cccnc1 | 2 |
| COc1ccccc1/C=C/C(=O)NC(C)(C)C(=O)NCCc1c[nH]c2ccccc12 | 35 |
| CC(C)(NC(=O)/C=C/c1cccc([N+](=O)[O-])c1)C(=O)NCCc1c[nH]c2ccccc12 | 42.1 |
| COc1cccc(/C=C/C(=O)NC(C)(C)C(=O)NCCc2c[nH]c3ccccc23)c1 | 45.9 |
| C[C@H](NC(=O)/C=C/c1ccccc1)C(=O)NCCc1ccccc1 | 29.6 |
| CC(C)(NC(=O)CCc1ccccc1)C(=O)NCCc1c[nH]c2ccccc12 | 12.5 |

The remaining lines, values ahead:

| inhibition [%] | SMILES |
| --- | --- |
| 44.1 | O=C(CCc1ccccc1)NCCc1c[nH]c2ccccc12 |
| 44.3 | O=C(/C=C/c1ccc(O)cc1)NCCc1c[nH]c2ccccc12 |
| 43.7 | C[C@H](NC(=O)/C=C/c1ccccc1)C(=O)NCCc1c[nH]c2ccc(OCc3ccccc3)cc12 |
| 24.2 | COc1ccc2[nH]cc(CCNC(=O)CNC(=O)/C=C/c3ccccc3)c2c1 |
| 32.9 | O=C(/C=C/c1ccccc1)NCC(=O)NCCc1c[nH]c2ccc(OCc3ccccc3)cc12 |
| 58 | O=C(/C=C/c1ccccc1)NCCc1c[nH]c2ccccc12 |
| 50.2 | C[C@H](NC(=O)CCc1ccccc1)C(=O)NCCc1c[nH]c2ccc(OCc3ccccc3)cc12 |
| 29.8 | O=C(NCCc1c[nH]c2ccc(OCc3ccccc3)cc12)[C@@H]1CCCN1C(=O)CCc1ccccc1 |
| 49.5 | CC(C)(NC(=O)/C=C/c1ccccc1)C(=O)NCCc1c[nH]c2ccccc12 |
| 59.6 | C[C@H](NC(=O)/C=C/c1ccccc1)C(=O)NCCc1c[nH]c2ccccc12 |
| 22.7 | O=C(/C=C/c1ccccc1)NCC(=O)NCCc1c[nH]c2ccccc12 |
